Patent US20130338092A1, “COMPOUNDS AND METHODS FOR TARGETING LEUKEMIC STEM CELLS” (The Broad Institute, Inc., priority 2011, published 2013)
“Also recorded” adds a separate entry of the source. Like-named read-outs stand apart in the source and are kept apart here.

Key:
[1] = tested on: LSC-enriched leukemia cells on OP9 stromal cells; assay: Leukemia coculture assay on OP9 stroma (primary screen); assay type: cell-based, murine; conditions: 5 μM
Description: Plate covers were re-added and the plates were placed in the incubator for 24 hours. The plate covers were removed, 100 nl of compound in dimethyl sulfoxide (DMSO) (final concentration 5 μM in 0.2% DMSO) was added to the appropriate wells using a CyBi-Well Vario (CyBio) the plate covers were replaced, and the plates were placed in the incubator for 3 days. Plate covers were removed, the media was aspirated from each plate, 50 μl of fresh media (50/50 coculture and OP9 conditioned media mix) was added and another 100 nl of compound was added to the appropriate wells. The plates were re-covered and placed in the incubator for 2 days. At this point, the plates were imaged using a IX Microscope (Molecular Devices) at 10× magnification at 9 sites per well in both the GFP and dsRed channels. Images were stored on the Broad Institute server for future analysis. […]
Briefly, primary dsRed^+ leukemia cells enriched for LSCs were isolated by flow cytometry and cocultured on GFP^+ OP9 stromal monolayers, treated with 5 μM of compound (to a final concentration of 0.2% DMSO), and imaged 5 days later by automated microscopy (dsRed channel for leukemia, and GFP channel for stroma) (FIG. 1). The stored images were analyzed for levels of cobblestoning as described herein.

[2] = tested on: LSC-enriched leukemia cells (MLL-AF9); assay: Leukemia coculture assay on primary MSC stroma (cobblestoning readout); assay type: cell-based, murine; conditions: for IC50: Mus musculus; for leukemia-selective activity in coculture vs normal HSPCs: primary MSC stroma
Description: Whole bone marrow were harvested from C57/B16 actin-dsRed mice (006051, Jackson Labs), subjected to red blood cell lysis (Qiagen), then granulocyte-macrophage progenitors (GMPs) were isolated by Fluorescence-activated cell sorting (FACsAria, Becton Dickinson). GMPs were spinfected twice (2500 rpm, 90 min, 37 C) in the presence of mIL3 (10 ng/ml, Peprotech), mIL6 (10 ng/ml, Peprotech), and mSCF (10 ng/ml, Peprotech) with pMSCV-MLL-AF9-Neo virus then transplanted into lethally irradiated C57/B16 recipients. After disease onset, the spleens were harvested and transplanted into sublethally irradiated secondary recipients. Subsequent transplantation of bulk spleen cells from leukemic secondary mice was repeated twice to generate leukemic GMPs from quaternary transplant leukemic mouse bone marrow.
Long bones and hips from moribund leukemic mice were harvested, cleaned, crushed and sequentially passed through 100 and 70 μM filters (Falcon). The cells were RBC lysed (Qiagen) and stained in PBS+2% FBS (Omega). Antibodies included lineage markers CD4, CD8, Gr1, Mac1, IL-7R, and Ter119 (Caltag), c-kit (17-1172-83, eBioscience), Sca-1 (11-5981-82, eBioscience), CD34 (11-0341-85, eBioscience), and CD16/32 (25-0161-82, eBioscience). Hoechst 33258 (H21491, Invitrogen) was also used, to identify live cells. Cells were sorted on a FacsAria II (Becton Dickinson).
The humerii, tibiae, ilia, femurs, and spine were isolated from actin-GFP mice (000329, Jackson Lab) crushed using a mortar and pestle, washed in phosphate-buffered saline (PBS) without magnesium and calcium (Gibco) with 0.5% fetal bovine serum (FBS) (HyClone) and filtered through a 70-μm filter. Red blood cell lysis was performed with ammonium-chloride/potassium-chloride (ACK) lysing buffer (Lonza), the cells were resuspended in α-MEM (StemCell Technologies), 20% FBS (HyClone) and 1× Pen-Strep (CellGro), plated in 25 ml in 150-cm^2 tissue-culture flasks (three per mouse), and incubated at 33° C. with 5% CO2. After 2-3 days, the medium was replaced with fresh α-MEM with 20% FBS. After 8-14 days, the cells were rinsed, split by trypsinization (CellGro), pooled, filtered through a 70 μm filter, replated at 3-4 million cells per 150-cm^2 tissue-culture flask, and grown at 33° C. with 5% CO2 for 3-4 days until nearly confluent. The cells were trypsinized, filtered, and resuspended in 0.5% FBS in PBS with biotin-conjugated anti-mouse CD105 antibody (eBioscience) for 15-30 minutes at room temperature. The CD105-labeled cells were incubated with Dynabead M-280 streptavidin-linked magnetic beads (Invitrogen) for 15-30 minutes at 4° C. with agitation and isolated using magnetic separation and rinsed once. The CD105^+ cell fraction was replated at 1-2 million cells per 150-cm^2 tissue-culture flask and incubated at 33° C. with 5% CO2 for 2-3 days.
The MSCs were trypsinized, filtered, diluted in phenol-red-free alpha-MEM with 20% FBS, and plated (30 μl for a total of 2000 cells per well) on 384-well clear-bottomed black tissue-culture treated plate (3712, Corning) pretreated with fibronectin (Millipore). Plate covers (VWR) were added, the plates were spun and at 500 with slow braking, and the cells were incubated at room temperature for 60-90 minutes before incubation at 33° C. with 5% CO2 for 3 days prior to hematopoietic cell plating. […]

normal HSPCs = assay: Normal HSPC coculture on primary MSC stroma; conditions: Mus musculus
Description: The material was cleaned, crushed and sequentially passed through 100 and 70 μM filters (Falcon). […] The biotin-labeled cells were spun down, resuspended in 0.5% FBS in PBS, and incubated for 15-30 minutes at 4° C. with agitation with 1 mL of Dynabead M-280 streptavidin-linked magnetic beads per 4 mice. The bead-linked cells were depleted using magnetic separation and rinsed once. The lineage- and CD48-depleted cell fraction was labeled with streptavidin-APC-Cy7 antibody from BD Biosciences and c-kit-APC, Sca-1-FITC, CD48-Pacific Blue, and CD150 PE-Cy7 antibodies from eBioscience. DsRed-positive lineage-Sca-1+c-kit+CD48− HSCs were sorted using a FACS DiVa or FACS ARIA (BD Biosciences).
A total of 20 μL of 20 μg/mL fibronectin (Millipore) in PBS was added to each well of a 384-well clear-bottomed black tissue-culture treated plate (Corning) and incubated for 30-120 minutes at 33° C. or 37° C. […] The fibronectin solution was removed from each well using a 24-channel wand aspirator; then 30 μL of BMSC solution was added to plate 2000 BMSCs/well. […] Each plate was covered with a sterile rayon breathable membrane (VWR) and plastic lid, and then spun at 500 rpm (approximately 60× gravity) with slow braking. The plates were incubated at room temperature for 60-90 minutes before incubation at 33° C. with 5% CO2 for 3 days prior to HSC addition.
The sorted HSCs, SLAMs and progenitor cells were resuspended in phenol-red free alpha-MEM with 20% FBS and diluted to 10,000 cells/mL. A total of 20 μL of cell solution containing 200 hematopoietic cells was added to each well using a multichannel pipettor or liquid-dispensing system. Each plate was covered with a sterile rayon breathable membrane (VWR) and plastic lid, and then spun at 500 rpm (approximately 60×gravity) with slow braking. The plates were incubated at room temperature for 60-90 minutes before incubation at 33° C. with 5% CO2 overnight prior to compound or cytokine addition.
Image analysis was performed using MetaXpress software from MDC and CellProfiler software from the Broad Institute of Harvard and MIT.
Compound addition and incubation was performed as described for the LSC coculture screen above, but without a media change or readdition of the compound.
The selected set was screened in 8-point dose against both normal HSPCs with a high number of replicates (6) and LSC-enriched leukemia cells, each cocultured on primary MSCs.

[3] = tested on: primary CD34+ cells from normal human cord blood; assay: Human CD34+ CAFC assay, normal cells; conditions: 1.25 μM to 10 μM, 18 hours exposure
Description: Samples were centrifuged over Ficoll-Paque PLUS (GE Heathcare) step gradient (2000×g for 30 min in 50 ml tubes) to obtain mononuclear cells and then CD34^+ cells were selected with immunomagnetic beads (MACS Cell Separation, Miltenyi Biotec, Auburn, Calif.), except in one case, NPM1 mutation, which was CD34^− by flow cytometry and mononuclear cells were used. 50,000 cells were placed into 12.5 cm^2 flasks (Becton Dickinson Labware, Franklin Lakes, N.J.) in co-culture with the MS-5 mouse bone marrow-derived stromal cell line (kindly provided by Dr. Itoh, Dept. of Biology, Niigata University, Japan) and DMSO control and the number of final cobblestones was later read. The number of cells needed to form one cobblestone was then placed in triplicate for each sample with each drug at serial drug dilutions from 10 μM to 0.63 μM as well as with DMSO 0.5% for control purposes and incubated overnight with Iscove's modified Dulbecco's medium (IMDM, in house media preparation laboratory)+20% fetal calf serum (FCS, Atlanta Biologicals, Lawrenceville, Ga.) with glutamine (2 mM/ml, in house media preparation laboratory), monothioglycerol (MTG, 10 nM/ml, Sigma Cell Culture, St. Louis Mo.), c-Kit ligand (20 ng/ml, Amgen, Thousand Oaks, Calif.), Flt ligand (20 ng/ml, Imclone, Bridgewater, N.J.), TPO (20 ng/ml, Amgen) and IL-3 (20 ng/ml, Amgen). […]
(§1) The cells were treated with compound or DMSO carrier control at four doses (ranging from 1.25 μM to 10 μM) in triplicate for 18 hours, washed thoroughly, then plated onto human stromal MS-5 monolayers (Itoh, K., Tezuka, H., Sakoda, H., Konno, M., Nagata, K., Uchiyama, T., Uchino, H., and Mori, K. J. (1989). Exp Hematol 17, 145-153.) and maintained in coculture with one subsequent half media change. After 5 weeks (2 weeks for the FLT3-ITD sample (Moore, M. A., Dorn, D. C., Schuring a, J. J., Chung, K. Y., and Morrone, G. (2007). Exp Hematol 35, 105-116.)), cobblestone formation was determined, and dose-response curves against the 7 cell types were generated for each compound.

[4] = tested on: human AML cell lines (U937, THP-1, NOMO-1, SKM-1, NB4, and OCI-AML3); assay: AML cell line screen (CellTiter-Glo); assay type: cell-based; conditions: for IC50: Homo sapiens, AML cell line screens, read-out: IC50s across 6 cell lines
Description: Nomo-1, THP-1, SKM-1, NB4, and U937 cell lines were grown in RPMI (12-702F, BioWhittaker), 10% FBS (10082-147, Gibco), and 1% Pen-Strep (15140-122, Gibco) and OCI-AML3 was grown in α-MEM (36453, Stem Cell Technologies), 10% FBS (10082-147, Gibco), and 1% Pen-Strep (15140-122, Gibco). 3000 cells were plated in each well in 30 μl in white, 384 well plates (3570, Corning) and 16 hours later 100 nl of the appropriate compound was added to each well. 72 hours later the plates were cooled to room temperature and 30 μl of CellTiterGlo reagent (G7570, Promega) diluted 1:1 in PBS was added to each well and the plates were analyzed using an Envision (Perkin Elmer).
First, a traditional small molecule screen was performed on six human AML cell lines (U937, THP-1, NOMO-1, SKM-1, NB4, and OCI-AML3), two of which (NOMO-1, THP-1) contain the same oncogene (MLL-AF9) used to generate the primary leukemia cells utilized in our coculture system. The cell lines were grown in isolation under standard conditions, treated with the 160 compounds at 8-point dose, and three days later the viability of each well was quantified using CellTiter-Glo reagent. The IC50s from these AML cell line screens were then compared to the IC50s from the coculture screens. […] As discussed, the existence of such differentially-active compounds is consistent with our hypothesis that coculturing can expand the pool of therapeutically promising compounds identified in high throughput format.

[5] = tested on: CD34+ cells from primary human leukemia samples; assay: Human CD34+ CAFC assay, leukemia samples; assay type: cell-based; conditions: 1.25 μM to 10 μM, 18 hours exposure, read at 5 weeks (2 weeks FLT3-ITD)
Description: Samples were centrifuged over Ficoll-Paque PLUS (GE Heathcare) step gradient (2000×g for 30 min in 50 ml tubes) to obtain mononuclear cells and then CD34^+ cells were selected with immunomagnetic beads (MACS Cell Separation, Miltenyi Biotec, Auburn, Calif.), except in one case, NPM1 mutation, which was CD34^− by flow cytometry and mononuclear cells were used. 50,000 cells were placed into 12.5 cm^2 flasks (Becton Dickinson Labware, Franklin Lakes, N.J.) in co-culture with the MS-5 mouse bone marrow-derived stromal cell line (kindly provided by Dr. Itoh, Dept. of Biology, Niigata University, Japan) and DMSO control and the number of final cobblestones was later read. The number of cells needed to form one cobblestone was then placed in triplicate for each sample with each drug at serial drug dilutions from 10 μM to 0.63 μM as well as with DMSO 0.5% for control purposes and incubated overnight with Iscove's modified Dulbecco's medium (IMDM, in house media preparation laboratory)+20% fetal calf serum (FCS, Atlanta Biologicals, Lawrenceville, Ga.) with glutamine (2 mM/ml, in house media preparation laboratory), monothioglycerol (MTG, 10 nM/ml, Sigma Cell Culture, St. Louis Mo.), c-Kit ligand (20 ng/ml, Amgen, Thousand Oaks, Calif.), Flt ligand (20 ng/ml, Imclone, Bridgewater, N.J.), TPO (20 ng/ml, Amgen) and IL-3 (20 ng/ml, Amgen). Cells were then washed to remove the drugs and placed into 96 well cell culture plates (Becton Dickinson) with α-MEM (in house media preparation laboratory)+12.5% FCS+12.5% horse serum (Gemini Bio-products, West Sacramento, Calif.) with glutamine, MTG, hydrocortisone (1 nM/ml, Sigma) and IL-3 in co-culture with MS-5 stromal cells. […] The same procedure was followed with normal CD34+ cells obtained from cord blood.
as §1

[6] = tested on: primary leukemia cocultures; assay: Mevalonolactone rescue experiment; assay type: cell-based, murine; conditions: 2 mM mevalanolactone with 1 μM lovastatin, 5 days
Description: Primary leukemia cocultures were plated as described, and treated with 2 mM mevalanolactone and/or 1 μM lovastatin as shown, for 5 days. Total leukemia cells were counted using MetaXpress software from MDC. Carriers were controlled for across all treatments. The viability of the stroma was assessed using stromal monolayers grown alone and treated in parallel, with the same readout described in the stromal toxicity screen here.

With CC[C@H](C)[C@@H](COC(Cc1ccccc1)C(=O)N[C@@H](CCS(C)(=O)=O)C(=O)OC(C)C)NC[C@@H](N)CS (stereo partly drawn) [L-744, 832] the “hit in primary screen” value [1] was “independently scored” and the “hit in primary screen” value ([1]; listed as L-744832) was “independently hit”.

COC(=O)Nc1nc2cc(SC(C)C)ccc2[nH]1 [Methiazole] was tested, and the IC50 ([2]; MLL-AF9, LSCs on primary MSC stroma, 8-point dose, read-out: Leukemia IC50) was 466 nM, the “leukemia-selective activity in coculture vs normal HSPCs” value [2] was “leukemia-selective activity” and the IC50 (normal HSPCs; read-out: Normal IC50, HSPCs on primary MSC stroma, 8-point dose) was > 20000 nM. The “toxicity against normal primary CD34+ cells (human CAFC)” value [3] was “neither compound showed toxicity”, the “activity against AML cell lines” value [4] was “strong activity” and the IC50 [4] was < 625 nM. The “leukemia cobblestone inhibition (human CAFC)” value [5] was “leukemia cobblestone inhibition was observed across all six primary leukemia samples”.

In the case of CCCCc1ccc2[nH]c(NC(=O)OC)nc2c1 [Parbendazole], the IC50 ([2]; MLL-AF9, read-out: Leukemia IC50) is reported as 76 nM, the “leukemia-selective activity in coculture vs normal HSPCs” value [2] is reported as “leukemia-selective activity” and the IC50 (normal HSPCs; read-out: Normal IC50) is reported as > 20000 nM. The “toxicity against normal primary CD34+ cells (human CAFC)” value [3] was “neither compound showed toxicity”, the “activity against AML cell lines” value [4] was “strong activity” and the IC50 [4] was < 625 nM. For the same molecule, the “leukemia cobblestone inhibition (human CAFC)” value [5] was “leukemia cobblestone inhibition was observed across all six primary leukemia samples”.

C[C@@]1(O)CCOC(=O)C1 [mevalonolactone] was tested, and the “rescue of anti-leukemia effect of lovastatic acid” value [6] was “rescues the anti-leukemia effect of lovastatin; also recorded: rescued the anti-leukemia effects of lovastatic acid”.
